# From patent US20120058057A1, “Anti-dandruff Agents” (MERCK PATENT GMBH, priority 2009, published 2012)
# What was measured:
# [1] = test system: Staphylococcus epidermidis; assay: Challenge test (Ph.Eur. 5.1.3), germ count over time, Staphylococcus epidermidis; assay type: cell-based; conditions: 1.0% in water
# [2] = test system: Malassezia furfur; assay: Challenge test (Ph.Eur. 5.1.3), germ count over time, Malassezia furfur; assay type: cell-based; conditions: for total number of microorganisms (linear scale) / total number of microorganisms (log-scale): 1.0% in water
# Description: The challenge testing procedure consists in challenging a non-contaminated antimicrobial product according to the invention with a prescribed inoculum of suitable microorganisms and storing the inoculated product at a prescribed temperature, e.g. room temperature. The number of organisms surviving in the test products is determined at specified intervals of time.
# According to the description given in the European pharmacopea (Ph.Eur.5 Ausgabe, Grundwerk 2005, §5.1.3), the challenge tests are done following the procedure given thereafter.
# Production of the Inoculum
# A fresh stock culture of the specific micro-organsisms is inoculated on the surface of Agar medium B for bacteria and on the surface of Agar medium C for fungi. The bacteria culture will be incubated until sufficient sporulation (18-24h at 30-35° C.) In order to harvest the bacteria, the surface of the Agar media is washed out with a sterile solution containing sodium chloride (9 g/l) and poured into an adequate vessel. The concentration of germs in the suspension will be adjusted with the same solution to a concentration closed to 10^8 micro-organism/ml. Immediately after that action, a sample of this suspension is taken and the germ concentration in CFU/ml will be measured thanks to the method of membran filtration or counting on Agar plate. This value serves determining the value of the inoculum. The suspension must be used immediately.
# Method of Determination of Germ Count
# In order to determine the number of micro-organisms in the inoculated preparation (containing also the antimicrobial product according to invention), the same Agar medium as for the preparation of the inoculum will be used.
# The aqueous suspension/solution containing 1% of the used ionic liquids (=verum) is inoculated with a suspension of the tests micro-organisms (Malassezia furfur) in such a way that a concentration from 10^5 to 10^6 microorganism/ml of the preparation is reached. The inoculated volume should not be above 1% v/v of the overall test solution. The suspension will be mixed in order to get a good homogenisation.
# Water alone (=placebo) is treated in the same way. Antifungicidial activity of the verum will be detected once the survival rate of a microorganism for the verum is significantely lower than for the placebo.
# The inoculated preparation is stored away from the daylight at 20-25° C. In order to begin the test, 1 g or 1 ml samples from the tests preparation (containing the inoculated micro-organsisms and the antimicrobial product according to the invention) will be taken at different intervals of time (in our case , 0.2 min, 5 min, 30 min, 1 h, 3 h, 6 h, 24 h) and the number of microorganisms will be measured using the Agar plate or the membrane filtration method. It is important to make sure that any remaining antimicrobial activity to be eliminated by dilution, filtration or specific inactivation.
# [3] = Malassezia furfur, incubation 0 h
# [4] = Malassezia furfur, incubation 1 h
# [5] = Malassezia furfur, incubation 3 h
# [6] = Malassezia furfur, incubation 6 h
# [7] = Malassezia furfur, incubation 24 h
compound,measurement,setting,value
"CC[N+](C)(C)CCOC [compound 1136, N-ethyl-N,N-dimethyl-2-methoxyethylammonium propionate]",total number of microorganisms (linear scale),[1]; incubation 0 h,210000
same,total number of microorganisms (log-scale),[1]; incubation 0 h,5.3
same,total number of microorganisms (linear scale),[1]; incubation 1 h,160000
same,total number of microorganisms (log-scale),[1]; incubation 1 h,5.2
same,total number of microorganisms (linear scale),[1]; incubation 3 h,180000
same,total number of microorganisms (log-scale),[1]; incubation 3 h,5.3
same,total number of microorganisms (linear scale),[1]; incubation 6 h,170000
same,total number of microorganisms (log-scale),[1]; incubation 6 h,5.2
same,total number of microorganisms (linear scale),[1]; incubation 24 h,22000
same,total number of microorganisms (log-scale),[1]; incubation 24 h,4.3
same,antifungicidial / microbicidal activity against Malassezia furfur (in words),[2]; Malassezia furfur,unique antifungicidial activity
same,total number of microorganisms (linear scale),[2]; [3],45000
same,total number of microorganisms (log-scale),[2]; [3],4.7
same,total number of microorganisms (linear scale),[2]; [4],41000
same,total number of microorganisms (log-scale),[2]; [4],4.6
same,total number of microorganisms (linear scale),[2]; [5],36000
same,total number of microorganisms (log-scale),[2]; [5],4.6
same,total number of microorganisms (linear scale),[2]; [6],33000
same,total number of microorganisms (log-scale),[2]; [6],4.5
same,total number of microorganisms (linear scale),[2]; [7],100
same,total number of microorganisms (log-scale),[2]; [7],2.0
same,selectivity of growth inhibition: Malassezia furfur versus desired skin microorganisms (e.g. Staphylococcus epidermidis),[2]; in words,selectively inhibit the growth of the undesired microorganism Malassezia furfur
